Tested on: BALB/c mice
Experiment: cutaneous hypersensitivity test (CH test), oxazolone-induced ear swelling
Format: in vivo
Conditions: Mus musculus, ip; intraperitoneal, at sensitisation and every 24 hours for a further 7 days; lowest dose used giving 20% or greater reduction in ear swelling (p <0.05) in two out of three CH tests; read-out: Minimum Effective Dose
Experimental: This test was carried out in the following way.
Female BALB/c mice, weight range 16-24 g, were used in groups of eight. The abdomen of each mouse was shaved and 20 µl of a solution of a sensitising agent, 5% w/v 4-ethoxymethylene-2-phenyl-2-oxazolin-5-one (oxazolone) in acetone:ethanol (1:1 by volume), was applied to the shaved area. Immediately after sensitisation, the test compound in one of the dosages listed below was injected intraperitoneally as a suspension in 1.5% v/v sorbitan esters, under the trade name Tween 80, in sterile water (100µl). 100 µl of the same suspension was injected likewise every 24 hours for a further 7 days. The dosages used were selected from the following values: 50, 30, 10, 3, 1, 0.3, 0.1, 0.03 or 0.01 mg/kg.
Two groups of eight BALB/c mice were used as a control simultaneously with each test in a similar manner to that described above except that no test compound was included in the daily injections.
On the seventh day after sensitisation, 10 µl of a solution of 1% w/v oxazolone in acetone: olive oil (either 1:1 or 3:1 by volume) was applied to one ear (the challenged ear) of each of the test mice and the control mice. After 24 hours the thickness of the challenged ear and the thickness of the non-challenged ear of the same animal were measured with an engineer's screw gauge micrometer. The difference in thickness between the challenged ear and the non-challenged ear in each animal is a measure of the response of that animal to oxazolone. A comparison between the response of mice treated with the test compound and mice treated with the control indicates the effectiveness of the test compound as an immunomodulatory agent. The compounds were considered to be active at a particular dose if a 20% or greater reduction in ear swelling, which was statistically significant (p <0.05) according to Dunnett's test, between treated and control groups was obtained in two out of three CH tests, (or, where more than three tests have been carried out, a majority of the tests) at that dose (see for example Int. Arch. Allergy, 38, p246-259 (1970)).
Each of the compounds of formula I illustrated in Table A below was active at 50 mg/kg in two out of three tests at 50 mg/kg unless indicated otherwise (see Notes following the Table). The minimum effective dose (ie the lowest dose of those used at which the compound is active as defined above) for each compound is given in Table A. The Example (Ex) number or numbers listed adjacent to each compound indicates the process or processes illustrating the preparation of that compound in the Examples.

Work on `Cc1oc2ccccc2c2nn(-c3ccc(C(F)(F)F)cc3)c(=O)c1-2` [Example 47, 4-methyl-2-(4-trifluoromethylphenyl)-[1]benzopyrano[4,3-c]pyrazol-3(2H)-one] yielded a minimal effective dose of 1 mg/kg.

Work on `COc1cccc2oc(C)c3c(=O)n(-c4ccc(Cl)cc4)nc-3c12` [Example 51, 2-(4-chlorophenyl)-9-methoxy-4-methyl-[1]benzopyrano[4,3-c]pyrazol-3(2H)-one] yielded a minimal effective dose of 50 mg/kg.

Work on `Cc1oc2cc(F)ccc2c2nn(-c3ccc(Cl)cc3)c(=O)c1-2` [Example 48, 2-(4-chlorophenyl)-7-fluoro-4-methyl-[1]benzopyrano[4,3-c]pyrazol-3(2H)-one] yielded a minimal effective dose of 50 mg/kg.

With `Cc1ccc(-n2nc3c4ccccc4oc(C)c-3c2=O)cc1` [Example 43, 4-methyl-2-(4-methylphenyl)[1]benzo-pyrano[4,3-c]pyrazol-3(2H)-one] the minimal effective dose was 10 mg/kg.

`Cc1oc2ccccc2c2nn(-c3ccccc3)c(=O)c1-2` [Example 42, 4-methyl-2-phenyl[1]benzopyrano-[4,3-c]pyrazol-3(2H)-one] showed a minimal effective dose of 50 mg/kg.

With `CCOC(=O)Cc1oc2ccccc2c2nn(-c3ccc(F)cc3)c(=O)c1-2` [Example 53, ethyl 2-(4-fluorophenyl)-3-oxo-2,3-dihydro[1]benzopyrano[4,3-c]pyrazole-4-acetate] the minimal effective dose was 3 mg/kg.

Compound `Cc1oc2ccc(Cl)cc2c2nn(-c3ccc(Cl)cc3)c(=O)c1-2` [Example 49, 8-chloro-2-(4-chlorophenyl)-4-methyl-[1]benzopyrano[4,3-c]pyrazol-3(2H)-one] has a minimal effective dose of 50 mg/kg.

Compound `Cc1oc2ccccc2c2nn(-c3ccc(Br)cc3)c(=O)c1-2` [Example 44, 2-(4-bromophenyl)-4-methyl[1]benzo-pyrano[4,3-c]pyrazol-3(2H)-one] has a minimal effective dose of 1 mg/kg.

`Cc1ccc(-n2nc3c4ccccc4oc(C)c-3c2=O)cc1Cl` [Example 46, 2-(3-chloro-4-methylphenyl)-4-methyl-[1]benzopyrano[4,3-c]pyrazol-3(2H)-one] gave a minimal effective dose of 3 mg/kg.

For `Cc1ccc2oc(C)c3c(=O)n(-c4ccc(Cl)cc4)nc-3c2c1` [Example 50, 2-(4-chlorophenyl)-4,8-dimethyl[1]-benzopyrano[4,3-c]pyrazol-3(2H)-one], the minimal effective dose was 50 mg/kg.

In the case of `Cc1oc2ccccc2c2nn(-c3ccc(Cl)c(Cl)c3)c(=O)c1-2` [Example 36, 2-(3,4-dichlorophenyl)-4-methyl[1]-benzopyrano[4,3-c]pyrazol-3(2H)-one], the minimal effective dose is reported as 0.3 mg/kg.

Work on `Cc1oc2ccc(O)cc2c2nn(-c3ccc(Cl)cc3)c(=O)c1-2` [Example 56, 2-(4-chlorophenyl)-8-hydroxy-4-methyl-[1]benzopyrano[4,3-c]pyrazol-3(2H)-one] yielded a minimal effective dose of 50 mg/kg.

With `COc1ccc(-n2nc3c4ccccc4oc(C)c-3c2=O)cc1` [Example 39, 2-(4-methoxyphenyl)-4-methyl[1]benzo-pyrano[4,3-c]pyrazol-3(2H)-one] the minimal effective dose was 50 mg/kg.

`Cc1oc2ccccc2c2nn(-c3ccc(F)cc3)c(=O)c1-2` [Example 37, 2-(4-fluorophenyl)-4-methyl[1]benzo-pyrano[4,3-c]pyrazol-3(2H)-one] showed a minimal effective dose of 1 mg/kg.

Work on `Cc1oc2ccc(F)cc2c2nn(-c3ccc(Cl)cc3)c(=O)c1-2` [Example 54, 2-(4-chlorophenyl)-8-fluoro-4-methyl-[1]benzopyrano[4,3-c]pyrazol-3(2H)-one] yielded a minimal effective dose of 0.1 mg/kg.

In the case of `CCOC(=O)Cc1oc2ccccc2c2nn(-c3ccc(Cl)cc3)c(=O)c1-2` [Example 41, ethyl 2-(4-chlorophenyl)-3-oxo-2,3-dihydro[1]benzopyrano[4,3-c]pyrazole-4-acetate], the minimal effective dose is reported as 3 mg/kg.

In the case of `CCc1oc2ccccc2c2nn(-c3ccc(Cl)cc3)c(=O)c1-2` [Example 40, 2-(4-chlorophenyl)-4-ethyl[1]benzo-pyrano[4,3-c]pyrazol-3(2H)-one], the minimal effective dose is reported as 50 mg/kg.

With `Cc1oc2cc(Cl)ccc2c2nn(-c3ccc(Cl)cc3)c(=O)c1-2` [Example 55, 7-chloro-2-(4-chlorophenyl)-4-methyl-[1]benzopyrano[4,3-c]pyrazol-3(2H)-one] the minimal effective dose was 50 mg/kg.

In the case of `Cc1oc2ccccc2c2nn(-c3ccc(F)c(Cl)c3)c(=O)c1-2` [Example 45, 2-(3-chloro-4-fluorophenyl)-4-methyl-[1]benzopyrano[4,3-c]pyrazol-3(2H)-one], the minimal effective dose is reported as 0.3 mg/kg.

Work on `Cc1oc2cccc(C)c2c2nn(-c3ccc(Cl)cc3)c(=O)c1-2` [Example 52, 2-(4-chlorophenyl)-4,9-dimethyl[1]-benzopyrano[4,3-c]pyrazol-3(2H)-one] yielded a minimal effective dose of 50 mg/kg.

`Cc1oc2ccccc2c2nn(-c3cccc(Cl)c3)c(=O)c1-2` [Example 38, 2-(3-chlorophenyl)-4-methyl[1]benzo-pyrano[4,3-c]pyrazol-3(2H)-one] gave a minimal effective dose of 3 mg/kg.

Source: patent EP0354693A1, “Therapeutic agents” (The Boots Company PLC, priority 1988, dated 1990)
